{"source": "patent US8138179B2", "about": "“Spiro-imidazo compounds” (Novartis AG, priority 2006, dated 2012)", "key": {"plasma aldosterone": {"test_system": "plasma aldosterone", "assay": "In vivo suppression of plasma aldosterone levels in ACTH-stimulated rats", "set-up": "species or system Wistar rats", "settings": "4 mg/kg p.o.; plasma level 2 h after administration relative to 1 h prior to administration", "procedure": "(§1) The aldosterone- and corticosterone-suppressing activity of herein described compounds may be assessed with the following in vivo protocol.\n(§2) Adult male Wistar rats weighing between 250 and 350 grams are kept under the usual 12 hour light and 12 hour dark conditions at a temperature of 23° C.±2° C. On the first day of the experiment, the animals receive a subcutaneous injection of a depot ACTH product in a dose of 1.0 mg/kg weight (SYNACTHEN-Depot, Novartis, Basel, CH) 16 hours prior to the administration of a test compound. […] An alternative method to stimulate aldosterone secretion consists in subjecting rats to a low salt diet for 48 hours and applying the diuretic furosemide at 10 mg/kg by subcutaneous or intraperitoneal administration 16 hours, respectively 2 hours prior to the start of the experiment. […] The aldosterone and corticosterone concentrations of the plasma samples can be determined with a radioimmunoassay as described above for the in vitro test systems.\n(§3) The selective suppression of plasma steroid levels as for instance aldosterone in comparison to corticosterone may serve as a measure for in vivo bioavailability and pharmacodynamic enzyme inhibitory activity of the herein described compounds. The evaluation of the data may occur relative to the application of vehicle or quantitatively by determination of the area under the curve (AUC). […]"}, "plasma corticosterone": {"test_system": "plasma corticosterone", "assay": "In vivo suppression of plasma corticosterone levels in ACTH-stimulated rats", "set-up": "species or system Wistar rats", "settings": "4 mg/kg p.o.; plasma level 2 h after administration relative to 1 h prior to administration", "procedure": "as §1, §2, §3"}}}
{"smiles": "N#Cc1ccc2c(c1)C1(CCC2)OCCn2cncc21", "note": "(centres unmarked) [Example 10, spiro-[(5,6-Dihydro-8H-imidazo[5,1-c][1,4]oxazine)-8,8′-(5′,6′,7′,8′-tetrahydronaphthalene-2′-carbonitrile)]]", "values": [{"measurement": "Aldosterone levels (% change at 2 h)", "setting": "plasma aldosterone", "value": "−81.7", "unit": "%"}, {"measurement": "Corticosterone levels (% change at 2 h)", "setting": "plasma corticosterone", "value": "−14.5", "unit": "%"}]}
